Consider 25 compounds from patent US4533662A, “2-Acylaminomethyl-1,4-benzodiazepine compounds and analgesic use” (Kali-Chemie Pharma GmbH, priority 1980, dated 1985).

The test system of data set [1] is mice. Description: Determination of the minimum toxic dose in mice. It is filed as in vivo, male mice. The conditions noted are these: p.o., observed 3 hours, deaths and symptoms up to 24 hours; maximum dose 300 mg./kg. As to the method:
1. Determination of the minimum toxic dose.
Maximum doses of 300 mg./kg. of the compound to be tested are administered per os to male mice of a weight of 20 g. to 25 g. The animals are carefully observed for any toxicity symptoms during 3 hours. In addition thereto all symptoms and deaths are registered for a period of time of 24 hours after administration of the drug. Any accompanying symptoms are also observed and registered. When death or toxic symptoms are observed, more and more decreasing doses are administered to other mice, until no more toxic symptoms are encountered. The lowest dose which causes toxic symptoms is given as the minimum toxic dose.

Data set [2] concerns mice. The data set is described as follows: Tail flick test with mice. The data set is classed as in vivo, male and female mice. The conditions noted are these: Mus musculus, sc, 0.5 h; s.c., 30 min after administration; reaction time 75% longer in 50% of animals. As to the method: 3. Tail flick test with mice.
The method is based on the procedure described by d'Amour and Smith in 1941. In contrast thereto there are used, in place of rats, fed male and female mice of a body weight of 16 g. to 25 g. 30 minutes before treatment with the compound to be tested each mouse is placed into a separate cylindrical container of such a size that the mouse cannot turn around and cannot move forward. Its tail extends outwardly of the container while resting in a narrow trough. A specific spot of the tail of each animal (at a distance of about 35 mm. from the tail root) is exposed to the heat of radiation of a lamp of known strength and temperature. The lamp is positioned directly underneath the tail. The time in seconds which the mouse needs in order to jerk the tail out of the range of the light ray, is determined twice, once 30 minutes and another time 15 minutes before the subcutaneous administration of the compound (10 mg./kg) to be tested. Mice, the reaction time of which deviates by more than 25%, are eliminated and disregarded. The reaction times are again measured 15 minutes and 30 minutes after administration. An increase in the reaction times by more than 75% of the average reaction time values measured before administration of the test compound to the same mouse is considered an analgesic effect. […] The ED50 is calculated according to the method of Litchfield and Wilcoxon (1949).

The subject of the next data set is rats. Description: Arthritis pain test with rats. The settings on record: Rattus norvegicus, po, 3 hours after administration; protection (no or one squeak) in 50% of animals; read-out: Suppression of arthritis pain in rats ED50. The data set is classed as in vivo, Male rats of the strain OFA. As to the method:
2. Arthritis pain test with rats.
Male rats of the strain OFA weighing 160 g. to 180 g. are anesthesized by intraperitoneal administration of 20 mg./kg. of pentobarbital sodium. 0.1 ml. of suspension of Mycobacterium Smegmae (S I043) in paraffin oil (0.6 mg. of Mycobacterium in 0.1 ml. of paraffin oil) are injected intracutaneously into the left hind paw. Fourteen days thereafter, when a pronounced secondary arthritis has developed particularly in the right hind paw, the effects of the compound to be tested are investigated. 30 minutes before the administration of the compound to be tested, a control measurement is carried out by bending three times the ankle joint of the right hind paw and the number of squeaks produced by the animal are counted. […] Three hours after oral administration of the compound to be tested, the bending procedure is repeated. Animals which emit only one squeak or none at all, are considered to be protected against pain. Between 9 and 20 rats are tested per dose and the ED50 (95% confidence limit) is determined according to the method of Litchfield and Wilcoxon (1949). The dose which achieves protection in 50% of the treated animals is designated as the ED50.

Broadly, the ED50 is the midpoint of the dose-response relation.

The structures appear in SMILES notation. Counter-ions that a name gives are not always drawn. Bounds are passed on as bounds.

Take `COc1ccc2c(c1)N(C)C(CNC(=O)c1ccccc1)CN=C2c1ccccc1F` (centres unmarked) [Example 60]: the “Minimum toxic dose in mice” value in the data set on mice [1] is 300 mg/kg. For the same compound, the median effective dose (ED50) with mice [2] was 0.32 mg/kg; in the data set on rats, 3.5 mg/kg.

For `COc1cccc(C(=O)NCC2CN=C(c3ccccc3F)c3ccccc3N2C)c1` (centres unmarked) [Example 31], the “Minimum toxic dose in mice” value with mice [1] is above 300 mg/kg. For the same compound, the ED50 is 1.8 mg/kg with mice [2] and 10 to 18 mg/kg in the data set with rats.

Take `CN1c2cc3c(cc2C(c2ccccc2)=NCC1CNC(=O)c1ccccc1)OCO3` (centres unmarked) [Example 49]: the “Minimum toxic dose in mice” value in the data set with mice [1] stood at 100 mg/kg. Further, the values for the 50% effective dose (ED50) in the data set on mice [2] and with rats were 0.56 mg/kg and 2.5 mg/kg, respectively.

As for `COc1ccc(C(=O)NCC2CN=C(c3ccccc3)c3ccccc3N2C)cc1` (centres unmarked) [Example 20], the “Minimum toxic dose in mice” value in the data set on mice [1] worked out at 300 mg/kg. In addition, the ED50 is 4.6 mg/kg in the data set on mice [2] and around 4 mg/kg in the data set with rats.

For `CCN1c2ccccc2C(c2ccccc2F)=NCC1CNC(=O)c1ccc(C(F)(F)F)cc1` (centres unmarked) [Example 154], the median effective dose (ED50) in the data set on rats is 2 mg/kg.

As to `COc1ccc(CC(=O)NCC2CN=C(c3ccccc3)c3cc4c(cc3N2C)OCO4)cc1OC` (centres unmarked) [Example 113], the “Minimum toxic dose in mice” value in the data set with mice [1] came to 100 mg/kg. Moreover, the figures for the ED50 in the data set with mice [2] and in the data set with rats were below 5.6 mg/kg and 18 to 32 mg/kg, respectively.

For `CN1c2ccccc2C(c2ccccc2)=NCC1CNC(=O)c1ccc(Cl)c(Cl)c1` (centres unmarked) [Example 19, 1-Methyl-2-(3,4-dichlorobenzoylaminomethyl)-5-phenyl-1H--2,3-dihydro-1,4-benzo diazepine hydrochloride], the “Minimum toxic dose in mice” value with mice [1] was above 300 mg/kg. Moreover, the ED50 was 1 mg/kg in the data set with mice [2] and around 2.3 mg/kg in the data set with rats.

With `COc1ccc2c(c1)N(C)C(CNC(=O)c1ccccc1)CN=C2c1cccc(C(F)(F)F)c1` (centres unmarked) [Example 55], the ED50 with mice [2] was 5.6 to 10 mg/kg; in the data set on rats, 10 to 18 mg/kg.

In the case of `Cc1ccc(C(=O)NCC2CN=C(c3ccccc3)c3ccccc3N2C)cc1` (centres unmarked) [Example 25], the ED50 in the data set on mice [2] was 2.5 mg/kg; with rats, 3.2 mg/kg.

Take `CN1c2ccccc2C(c2ccccc2F)=NCC1CNC(=O)c1ccc(C#N)cc1` (centres unmarked) [Example 29]: the “Minimum toxic dose in mice” value in the data set with mice [1] amounted to 300 mg/kg. Moreover, the figures for the ED50 with mice [2] and in the data set on rats were 21 mg/kg and 1.7 mg/kg, respectively.

With `CN1c2ccccc2C(c2ccccc2)=NCC1CNC(=O)c1ccc([N+](=O)[O-])cc1` (centres unmarked) [Example 28], the “Minimum toxic dose in mice” value with mice [1] was above 300 mg/kg. For the same compound, the ED50 in the data set on rats was 0.6 mg/kg.

For `Cc1ccc2c(c1)C(c1ccccc1F)=NCC(CNC(=O)c1ccccc1)N2C` (centres unmarked) [Example 47], in the data set on mice [1], the “Minimum toxic dose in mice” value was above 300 mg/kg. Moreover, the median effective dose (ED50) in the data set with mice [2] is 5.6 mg/kg; in the data set with rats it was around 13 mg/kg.

On to `CCN1c2ccccc2C(c2ccccc2)=NCC1CNC(=O)c1ccc(C(F)(F)F)cc1` (centres unmarked) [Example 155], for which the 50% effective dose (ED50) in the data set on rats was around 2 mg/kg.

Turning to `COc1ccc(C(=O)NCC2CN=C(c3ccccc3F)c3ccccc3N2C)cc1` (centres unmarked) [Example 32], in the data set on mice [1], the “Minimum toxic dose in mice” value came to 300 mg/kg. The results for the median effective dose (ED50) in the data set on mice [2] and in the data set on rats were 4.2 mg/kg and 1.7 mg/kg, respectively.

As to `CN1c2ccccc2C(c2ccccc2F)=NCC1CNC(=O)c1cccc(C#N)c1` (centres unmarked) [Example 35], the 50% effective dose (ED50) with mice [2] is 13 mg/kg; in the data set with rats, 9 mg/kg.

As to `CN1c2ccccc2C(c2ccccc2F)=NCC1CNC(=O)c1ccc(C(F)(F)F)cc1` (centres unmarked) [Example 33], the “Minimum toxic dose in mice” value in the data set on mice [1] is above 300 mg/kg. In addition, the 50% effective dose (ED50) is 1.4 mg/kg with mice [2] and 5.6 to 10 mg/kg with rats.

In the case of `COc1ccc2c(c1)N(C)C(CNC(=O)c1ccccc1)CN=C2c1ccc(Cl)cc1Cl` (centres unmarked) [Example 4, 8-Methoxy-1-methyl-2-benzoyl amino methyl-5-(2',4'-dichlorophenyl)-1H-2,3-dihydro-1,4-benzo diazepine], in the data set on mice [1], the “Minimum toxic dose in mice” value turned out to be 10 mg/kg. The values for the ED50 in the data set on mice [2] and with rats were 0.07 mg/kg and 0.5 mg/kg, respectively.

Turning to `CN1c2cc(F)ccc2C(c2ccccc2)=NCC1CNC(=O)c1ccccc1` (centres unmarked) [Example 59], the “Minimum toxic dose in mice” value with mice [1] was found to be 300 mg/kg. Moreover, the results for the ED50 with mice [2] and with rats were 1 mg/kg and 9.7 mg/kg, respectively.

As for `COc1ccc(CC(=O)NCC2CN=C(c3ccccc3)c3cc(Cl)ccc3N2C)cc1OC` (centres unmarked) [Example 112], the “Minimum toxic dose in mice” value in the data set with mice [1] came out at 50 mg/kg. In addition, the median effective dose (ED50) amounted to 20 mg/kg in the data set with mice [2] and 10 mg/kg in the data set on rats.

Consider `CN1c2ccccc2C(c2ccccc2)=NCC1CNC(=O)c1ccccc1` (centres unmarked) [Example 1, 1-Methyl-2-benzoyl amino methyl-5-phenyl-1H-2,3-dihydro-1,4-benzo diazepine], for which, in the data set with mice [1], the “Minimum toxic dose in mice” value was above 300 mg/kg. The ED50 with mice [2] is 0.52 mg/kg; in the data set on rats, 19 mg/kg.

Consider `CN1c2ccccc2C(c2ccccc2)=NCC1CNC(=O)c1ccc(Cl)cc1Cl` (centres unmarked) [Example 18], for which, in the data set with mice [1], the “Minimum toxic dose in mice” value was above 300 mg/kg. For the same compound, the ED50 with rats was 7.5 mg/kg.

On to `COc1ccc2c(c1)N(C)C(CNC(=O)c1ccccc1)CN=C2c1ccc(F)cc1` (centres unmarked) [Example 2, 8-Methoxy-1-methyl-2-benzoyl amino methyl-5-(4'-fluorophenyl)-1H-2,3-dihydro-1,4-benzo diazepine], for which the “Minimum toxic dose in mice” value in the data set with mice [1] turned out to be 50 mg/kg. For the same compound, the values for the ED50 in the data set on mice [2] and with rats were 0.64 mg/kg and 2 mg/kg, respectively.

`COc1ccc2c(c1)N(C)C(CNC(=O)c1ccccc1)CN=C2c1cccc(F)c1` (centres unmarked) [Example 58]: the “Minimum toxic dose in mice” value in the data set on mice [1] was determined as 300 mg/kg. Further, the median effective dose (ED50) was 1.6 mg/kg in the data set on mice [2] and around 18 mg/kg with rats.

For `COc1ccc(C(=O)NCC2CN=C(c3ccc(F)cc3)c3ccccc3N2C)cc1` (centres unmarked) [Example 40], the “Minimum toxic dose in mice” value with mice [1] is above 300 mg/kg. Besides, the median effective dose (ED50) with rats amounted to 11 mg/kg.

In the case of `CN1c2ccccc2C(c2ccccc2F)=NCC1CNC(=O)Cc1ccccc1Cl` (centres unmarked) [Example 117], the “Minimum toxic dose in mice” value in the data set on mice [1] is above 300 mg/kg. The 50% effective dose (ED50) in the data set on mice [2] was 13 mg/kg; in the data set with rats it was 6 mg/kg.
